Measured values: patent US8410138B2, “Compounds for activating TGF-beta signaling” (The Board of Trustees of the Leland Stanford Junior …, priority 2007, dated 2013)
Where two headings read alike, the source gives them in different places.

What was measured:
[1] = tested on: TGF-β signaling (SBE-SEAP reporter) in MFB-F11 cells; assay type: cell-based, mouse; settings: for Relative TGF-β activity, fold change compared with vehicle: cell reporter assay; for TGF-β agonist activity: data of FIGS. 1A-1J
Method: All compounds were tested twice, in duplicate, using the MFB-F11 cell line. 80 compounds were selected for further study based on induction of the reporter gene in any of the replicates. These compounds were tested again in MFB-F11 or C6-H4 cells, either alone or in the presence of 100 pg/ml of TGF-β1, to test for synergistic activities.

[2] = tested on: fibroblasts lacking Smad2, Smad3 or Smad4; assay: SBE reporter signaling in fibroblasts lacking elements of the TGF-β signaling pathway; assay type: cell-based; settings: Smad4-lacking fibroblasts; FIG. 2D
Excerpt: To understand how the TGF-β signaling agonists function and identify molecular genetic targets in cells, fibroblasts lacking different elements of the TGF-β3 signaling pathway, including Smad2, Smad3, and Smad4, were used in combination with plasmids encoding different inhibitors of the TGF-β signaling pathway to study TGF-β agonists in different backgrounds. For reference, the canonical TGF-β signaling pathway is illustrated in FIG. 2A. The biological actions of TGF-β1 are mediated through interactions with the type 2 TGF beta receptor (TBR2) 2 and the type I TGF beta receptor (TBRI) 3. Betaglycan 4 may participate in the binding of TGF-β1. Receptor activation leads to the phosphorylation of Smad proteins, such as Smad 2/3 5 and Smad 4 6, which translocate to the nucleus 7 to bind to the Smad DNA-binding element (SBE) 8, present in numerous genes, in combination with transcription factors (TF) 9. Smad 7 10 is inhibitory with respect to Smad 2/3 5 phosphorylation. Alternative signaling involves p38 11 and the MAP kinase pathway. TAB1 12 activates TAK1 13, which activates p38 11.
Because Smad2 and Smad3 can substitute for each other, results with Smad2 or Smad3 knock-out fibroblasts were more difficult to interpret. Nonetheless, the synergistic effect of TGF-β1 and 11H was blocked in the absence of Smad2 (FIG. 2B) or Smad3 (not shown). In these assays, signaling is reported via SBE elements, which are specific elements that bind Smad proteins. Thus, the 11H compound must signal through this element. Without being limited to theory, it is believed that the 3A compound functions as a competitive agonist of Smad binding to the SBE, representing a novel target and mode of action.

[3] = tested on: TGF-β signaling in the brain; assay: SBE-luc mice after lipopolysaccharide (LPS) administration; assay type: in vivo, mouse
Excerpt: SBE-luc mice can also be used to monitor activation of TGF-β signaling in response to glial activation after lipopolysaccharide (LPS) administration.

[4] = tested on: primary hippocampal neurons from E16 mouse embryos; assay type: cell-based; settings: Aβ oligomers inducing 50-70% cell death; 13A04 3 μM, TGF-β1 10 ng/ml; 24 hours
Method: (§1) FIG. 1H is a graph showing the relative amount of surviving 6-7 DIV hippocampal neurons of E16 mice following exposure to culture medium (CM) alone, 13A04 (3 μM), or CM containing Aβ at 2 or 5 μM with TGF-β1 (10 ng/ml) or 13A04 (3 μM). After 24 hours, cultures were fixed and surviving cells were counted. Data represent mean±SEM, n=3-7 fields counted per plate. All conditions were compared to Aβ using the Mann-Whitney test (* p<0.05, ** p<0.01). FIG. 1I is a graph showing the relative gene expression levels of the indicated TGF-β-responsive genes induced in MFB-F11 fibroblasts stimulated with TGF-β1 (yellow) or 13A04 (blue) for 24 h. mRNA was extracted, labeled and hybridized to gene expression arrays tailored for the TGF-β pathway.
Moreover, the small-molecule TGF-β agonist was not toxic at 3 μM and 10 μM (not shown).
Primary mixed neuronal cultures are exposed to Aβ oligomers and treated with compounds (0 to 10 μM concentration) and cell survival is measured using lactate dehydrogenase (LDH) release or by counting 4,6-diamidino-2-phenylindole (DAPI)-stained cells. […] Neuritic dystrophy in 21 DIV neurons can also be measured by quantifying the tortuosity of neurites as described by Ferreira et al.^70 and modified by others. […] Further incubation of these cells with the present compounds provides a sensitive assay for neuroprotection.

[5] = tested on: TGF-β signaling (SBE-luc reporter) in brain; assay: Bioluminescence and tissue luciferase in SBE-luc reporter mice; assay type: in vivo, mouse; settings: peripheral administration; FIG. 3E; indicates BBB passage
Excerpt: Transgenic mice harboring the SBE-luc reporter gene were generated and used to test the present compositions in vivo. These “reporter mice” mice express SBE-luc (i.e., “the transgene”) in all cells of the body.^1,54 Intraperitoneal injection of luciferin into SBE-luc mice produces bioluminescence generated by luciferase and photons penetrating the skull can be imaged using sensitive camera systems.^1,54
To determine whether 3A and its analogs are bioactive in vivo and able to penetrate the blood brain barrier (BBB), TGF-β1, 3A, 22B02, or 13A04 were injected into reporter mice i.p. or s.q. The animals were then sacrificed at the indicated times following injection. […] There was no obvious activation of the reporter in other organs.
Bioactivity data were confirmed by biochemical measurements of tissue luciferase in hippocampal homogenates (FIG. 3E).
Two-month old SBE-luciferase transgenic mice receive different concentrations of a test compound either s.q., i.p., or orally by gavage. […] Following administration of the test or control compounds, mice are injected with luciferin i.p. At, e.g., 2, 8, and 16 hours following injection of luciferin, the mice are imaged to detect bioluminescence as described above. Brains may be harvested 16 hours following test compound injection, and may be divided sagittally. […]

[6] = tested on: TGF-β-responsive genes in MFB-F11 fibroblasts; assay: Microarray of TGF-β pathway gene expression in tgfb1−/− fibroblasts; assay type: cell-based, mouse; settings: 1, 5, 24 hours
Method: as §1
A microarray assay was used to identify changes in gene expression caused by stimulating tgfb1^−/− fibroblasts with TGF-β1 or 13A04. mRNA was harvested 1, 5, and 24 hours following stimulation of tgfb1^−/− fibroblasts with TGF-β1 (or control) and analyzed for differential expression of 128 genes related to TGF-β signaling, using a commercially available filter array (Superarray Bioscience Corp.; FIG. 1I). […]

Compound	Relative TGF-β activity, fold change compared with vehicle ([1]; 3 μM) [fold]	Relative TGF-β activity, fold change compared with vehicle ([1]; 10 μM) [fold]	Relative TGF-β activity, fold change compared with vehicle ([1]; 30 μM) [fold]	Relative TGF-β activity, fold change compared with vehicle ([1]; 100 μM) [fold]	also measured
COCCN(CC(=O)N(CCc1c[nH]c2ccccc12)Cc1ccccc1)C(=O)Cc1cccs1 [Compound 3A, N-(2-(1H-indol-3-yl)ethyl)-N-benzyl-2-(N-(2-methoxyethyl)-2-(thiophen-2-yl)acetamido)acetamide]	1.7	2.9	5.2	11.4	TGF-β agonist activity [1]: TGF-β-agonists; Signaling in the absence of Smad4 [2]: not affected (or was even stronger)
CCOC(=O)CNC(=O)Nc1ccc(N2CCN(c3ccccc3OC)CC2)c(C(=O)NC(C)c2ccccc2)c1 (stereo not drawn) [Compound 5E, ethyl 2-(3-(4-(4-(2-methoxyphenyl)piperazin-1-yl)-3-(1-phenylethylcarbamoyl)phenyl)ureido)acetate]	–	–	–	–	TGF-β agonist activity [1]: TGF-β-agonists
COCCN(CC(=O)N(CCc1c[nH]c2ccccc12)Cc1ccc(F)cc1)C(=O)C(C)Cl (stereo not drawn) [Compound 13F03]	1.3	1.9	3.8	9.1	–
COCCCN(CC(=O)N(CCc1c[nH]c2ccccc12)Cc1ccc(C(F)(F)F)cc1)C(=O)C1CC1c1ccccc1 (stereo not drawn) [Compound 21A08]	1.1	1.5	1.9	2.7	–
Cc1ccc(C(=O)N(CC(=O)N(CCc2c[nH]c3ccccc23)Cc2ccc(C(F)(F)F)cc2)C(C)C)cc1[N+](=O)[O-] [Compound 21F11]	0.8	1.6	2.7	6.5	–
COCCN(CC(=O)N(CCc1c[nH]c2ccccc12)Cc1ccc(F)cc1)C(=O)c1ccc(Cl)c([N+](=O)[O-])c1 [Compound 22B05]	1.1	1.2	1.7	2.8	–
COCCCN(CC(=O)N(CCc1c[nH]c2ccccc12)Cc1ccc(F)cc1)C(=O)c1ccccc1Cl [Compound 22D03]	1.4	3.7	8.3	8.8	–
COCCCN(CC(=O)N(CCc1c[nH]c2ccccc12)Cc1ccc(F)cc1)C(=O)c1ccc(C(F)(F)F)cc1 [Compound 22E02]	1.4	4.7	8.6	9.1	–
CC(C)N(CC(=O)N(CCc1c[nH]c2ccccc12)Cc1ccc(N(C)C)cc1)C(=O)C(Cl)Cl [Compound 23B08]	1.1	1.8	3.1	4.5	–
CCOC(=O)CCC(=O)N(CC(=O)N(CCc1c[nH]c2ccccc12)Cc1ccc(N(C)C)cc1)C(C)C [Compound 23D05]	0.8	1.1	1.7	4.7	–
COCCN(CC(=O)N(CCc1c[nH]c2ccccc12)Cc1ccc(OC)c(OC)c1)C(=O)C(Cl)Cl [Compound 24D04]	1.2	1.1	1.5	2.7	–
CC(C)N(CC(=O)N(CCc1c[nH]c2ccccc12)Cc1ccc(Cl)c(Cl)c1)C(=O)CC(C)(C)C [Compound 37C02]	0.7	1.0	1.4	3.1	–
CC(C)(CCl)C(=O)N(CC(=O)N(CCc1c[nH]c2ccccc12)Cc1ccccc1)C1CC1 [Compound 44A04]	1.2	2.3	2.7	2.8	–
CC(C(=O)O)c1ccc(-c2ccccc2)c(F)c1 (stereo not drawn) [flurbiprofen]	–	–	–	–	TGF-β signaling in the brain after LPS (bioluminescence) ([3]; FIG. 4E): strongly reduced; Microglial activation after LPS ([3]; data not shown): strongly reduced
TGF-β1: recombinant transforming growth factor-β1, reference activator of the TGF-β signaling pathway	–	–	–	–	Protection of neurons against Aβ toxicity (survival) [4]: consistently protected neurons and increased survival; TGF-β signaling in vivo, tissue luciferase in hippocampal homogenates [5]: activated TGF-β signaling in vivo; Expression of TGF-β signaling genes (Fos, Jun, Myc, Smad1, Smad2, Smad3, Interleukin-6) [6]: induced; Signaling in the absence of Smad4 [2]: blocked or strongly inhibited
